Earlier results in patent US20180242917A1, “SYSTEMS AND METHODS FOR DETERMINING IMAGE QUALITY AND MODELS BASED ON CONTRAST INJECTION PROTOCOLS” (Duke University, priority 2015, published 2018).

Design: unit not given here
Conditions: used to calculate total EC fluid volume (18.9 L incl. 3 L plasma) for a 70-kg adult patient

In the case of CC(=O)N(CC(O)CO)c1c(I)c(C(=O)NCC(O)CO)c(I)c(C(=O)NCC(O)CO)c1I (stereo not shown) [iohexol], the “apparent volume value of distribution” value is given as 0.27.
